Data: US20110318415A1, “Hollow Gold Nanospheres (HAuNSs) and HAuNSs-Loaded Microspheres Useful in Drug Delivery” (priority 2009, published 2011)

How the values were obtained:
[1] = system: MDA-MB-231 cells; assay: Cytotoxicity of DOX-HAuNS and DOX-PEG-HAuNS (MTT); assay type: cell-based, human; details: equivalent DOX concentration 10 μg/mL, no NIR
Description: A total of 2.0×10^4 cells were plated in 96-well plates and incubated for 24 h to allow the cells to attach. The cells were exposed to free DOX, DOX@HAuNS, or DOX@PEG-HAuNS with various DOX concentrations. The cells were or were not irradiated with NIR laser at an output power of 2 W/cm^2 (3 min per treatment, 4 treatments in 2 h). Then the cells were incubated at 37° C. for a further 48 h. […] The data reported represented the means of triplicate measurements. In a separate experiment, the cells were exposed to HAuNS with various Au concentrations and then were or were not irradiated with NIR laser under the same conditions. Cell survival efficiency was measured after the incubation at 37° C. for 48 h.

[2] = system: MDA-MB-231 cells; assay: Cell uptake of DOX@HAuNS and DOX@PEG-HAuNS (fluorescence and dark-field microscopy); assay type: cell-based, human; details: without NIR laser; 1 h to 48 h incubation
Description: MDA-MB-231 cells were transferred and cultured onto 20-mm glass cover slips in a 24-well plate and allowed to grow for 2 days. Then the medium was replaced with 1 mL of fresh culture medium containing free DOX, DOX@HAuNS, or DOX@PEG-HAuNS. After incubation for 1 hr or 48 h, the cell monolayer on the cover slip was removed, repeatedly rinsed with PBS, and then mounted for microscopic examination. The cellular fluorescence and dark-field light scattering images were examined under a Zeiss Axio Observer.Z1 fluorescence microscope (Carl Zeiss MicroImaging GmbH, USA) equipped with a dark-field condenser.
In a separated experiment, MDA-MB-231 cells cultured on 20-mm glass cover slips were irradiated with NIR laser (1.0 W/cm^2 for 3 min per treatment, 4 treatments in 2 h). Cell nuclei were stained with DAPI. The cellular fluorescence and light scattering images were obtained as described in the preceding paragraph.

**Q.** For `COc1cccc2c1C(=O)c1c(O)c3c(c(O)c1C2=O)C[C@@](O)(C(=O)CO)C[C@@H]3O[C@H]1C[C@H](N)[C@H](O)[C@H](C)O1` [free DOX, doxorubicin], which cells killed [1] is on record?
**A.** The cells killed was 77.4%.

**Q.** And the “cellular uptake and intracellular distribution” value [2]?
**A.** The value was “taken up by the tumor cells and distributed to cell nuclei”.
